Tested on: subjects with major depressive disorder (MDD) who were inadequate responders to citalopram
Assay: CGI-I / CGI-GI (Clinical Global Impression-Improvement), Phase 2b add-on trial
Assay type: in vivo, human
Description: The Clinical Global Impression—Improvement scale (CGI-I) is a 7 point scale that requires the clinician to assess how much the patient's illness has improved or worsened relative to a baseline state at the beginning of the intervention. The Clinical Global Impression—Efficacy Index is a 4 point×4 point rating scale that assesses the therapeutic effect of the treatment. In more detail, a multi-center double-blind, randomized, placebo-controlled, parallel group, flexible dose titration study of TC-5214 as adjunctive therapy in subjects with major depressive disorder (MDD) who were inadequate responders to citalopram was conducted in centers in the US and India. The study consisted of a screening period, baseline/washout period, open-label phase, double-blind phase, and a follow-up visit. Subject participation in the study could continue for up to 16 weeks of treatment. Following a washout period of up to 28 days for other antidepressants, subjects with MDD and a MADRS total score >/=28 and a Clinical Global Impression-Severity (CGI-S) score >/=4 were enrolled on Day 1 into an open-label citalopram-only phase of the study. This phase lasted 8 weeks, with citalopram (CIT) dose increased from a once-daily dose of 20 mg (Day 1 through Week 4) to 40 mg (Week 4 through Week 8). A total of 579 subjects entered the open-label citalopram phase. At Week 8, subjects who tolerated 40 mg CIT, but whose MADRS score was reduced <50% from baseline and no lower than 17, and CGI-S≧4, were considered inadequate responders. These subjects (n=270) were randomized in a double-blind fashion to receive either placebo or TC-5214-23 as add-on therapy to continued CIT. The double-blind phase of the study also lasted 8 weeks (Week 8 to Week 16). Study drug, TC-5214-23 or placebo, was started at 2 mg daily (1 mg twice per day [BID] dosing), added on to continuing CIT (40 mg PO qd). After 2 weeks of treatment, the dose of TC-5214 could be increased to 4 mg (2 mg BID) or continued unchanged, with up-titration based upon good tolerability and inadequate therapeutic response. After a further 2 weeks, the dose of TC-5214 could be increased again to 8 mg (4 mg BID) if judged appropriate by the investigator, based upon good tolerability and inadequate therapeutic response. At any time during the double-blind phase of the study, placebo or TC-5214-23 could be reduced to the previous dose level following the emergence of unacceptable adverse events (AEs). […] At this follow-up, any signs or symptoms of relapse were evaluated. If a subject was prematurely discontinued from the study between Week 8 and Week 16 for any reason, the investigator was to make every effort to perform all evaluations as per protocol, assuming the subject had reached the end of the double-blind add-on treatment phase. These evaluations were to be made as soon as possible and within 2 weeks of discontinuation. […] There was no meaningful difference in results as a function of age, gender, site, or smoking status. With regard to efficacy endpoints, the following tables present efficacy used in the ITT (Intent-to-Treat) and PP (Per Protocol) populations unless otherwise specific. The primary inference was based upon Week 16 visit using the ITT population. Change from baseline was obtained by subtracting the baseline values from the individual on-treatment values. Change from Week 16 was obtained by subtracting the Week 16 values from the individual follow-up visit (Week 18/19) values. If either the baseline or Week 16 or on-treatment or follow-up value was missing, the change from baseline or Week 16 value was also set to missing. To account for missing data, the last observation carry forward (LOCF) method was used for the ITT and PP populations. Thus, the last available on-therapy observation for a subject, including the observation at premature discontinuation, was used to estimate subsequent missing data points. […]

[1] = ITT Population, Double Blind Week 16 LOCF
[2] = ITT Population, Double Blind Week 18 LOCF (Follow-up)
[3] = PP Population, Double Blind Week 16 LOCF
[4] = PP Population, Double Blind Week 18 LOCF (Follow-up)

Structure (SMILES): CNC1(C)C2CCC(C2)C1(C)C (stereo in doubt) [TC-5214, (S)—N,2,3,3-tetramethylnorbornan-2-amine]
- CGI-I Adjusted Mean [1]: 1.91
- CGI-I Mean Difference between TC-5214 and Placebo [1]: 0.79
- CGI-I Adjusted Mean [2]: 1.90
- CGI-I Mean Difference between TC-5214 and Placebo [2]: 0.71
- CGI-I score compared with placebo (ITT and PP populations, Week 16 and Week 18, result in words): statistically significant decreases (improvements)
- CGI-GI Difference vs Placebo + CIT (ITT, Week 16 LOCF): −0.79
- CGI-GI Adj. Mean (ITT, Week 16 LOCF, add-on to citalopram): 1.91
- CGI-I Adjusted Mean [3]: 1.84
- CGI-I Mean Difference between TC-5214 and Placebo [3]: 0.78
- CGI-I Adjusted Mean [4]: 1.83
- CGI-I Mean Difference between TC-5214 and Placebo [4]: 0.71

Source: patent publication US20120190752A1, “EXO-S-MECAMYLAMINE METHOD, USE, AND COMPOUND FOR TREATMENT” (Targacept Inc., priority 2009, published 2012)
